We go through 26 compounds from patent US11590116B2 (THERAVANCE BIOPHARMA R&D IP, LLC, priority 2019, dated 2023).

A value given as a limit tells only on which side of the number the result lay.

The test system of test [1] is TGF-β-stimulated SMAD3 phosphorylation in BEAS-2B cells. Nature of the test: Cellular ALK5 potency assay, inhibition of TGF-β stimulated pSMAD3 formation in BEAS-2B cells. The format is cell-based. As to conditions: Homo sapiens; inhibition of TGF-β stimulated pSMAD3 formation, BEAS-2B cells; read-out: BEAS2B pIC50 (converted). Put shortly:
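Cells seeded overnight; rinse with supplemented HBSS; compound 1 h at 37 °C; TGF-β 10 ng/mL final, 30 min; lyse; AlphaLISA acceptor and detector beads 2 h apart, read next day. Potency expressed as pIC50.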

Test [2] deals with T1, recombinant human ALK5 (TGF-βR1) protein (Homo sapiens, UniProt P36897).
T1 construct: purchased Life Technologies PR9075A
T1 sequence (P36897 34-503): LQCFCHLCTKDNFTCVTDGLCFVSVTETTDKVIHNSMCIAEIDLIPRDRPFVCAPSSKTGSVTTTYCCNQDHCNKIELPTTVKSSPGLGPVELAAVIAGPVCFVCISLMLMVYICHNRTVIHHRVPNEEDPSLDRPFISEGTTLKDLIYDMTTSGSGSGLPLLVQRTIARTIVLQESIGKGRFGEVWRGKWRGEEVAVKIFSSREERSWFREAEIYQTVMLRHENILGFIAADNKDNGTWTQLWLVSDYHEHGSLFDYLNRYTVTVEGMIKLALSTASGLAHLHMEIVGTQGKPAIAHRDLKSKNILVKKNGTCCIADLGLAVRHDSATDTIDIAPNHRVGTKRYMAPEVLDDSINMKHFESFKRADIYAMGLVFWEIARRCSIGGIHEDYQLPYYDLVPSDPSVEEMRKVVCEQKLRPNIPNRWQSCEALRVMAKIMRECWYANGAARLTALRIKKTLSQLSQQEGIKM
Nature of the test: Biochemical ALK5 (TGF-βR1) assay to measure pKi (LANCE Ultra ULight kinase assay). As to conditions: apparent pKi from pIC50 by Cheng-Prusoff, read-out: ALK5 pKi (converted). Put shortly:
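Dose range 10 μM–25 pM; enzyme + compound 60 min RT; ATP added (5× stock 125 μM, 2 mM DTT); 60 min 37 °C; stop with EDTA + Eu anti-phospho-Topo IIα Thr1342 Ab; TR-FRET ex 320/340, em 665 nm. 4-param pIC50 → pKi (Cheng-Prusoff).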

As to `CNCCn1cc(-c2cnc3ccc(-c4nnn(Cc5ccccc5)c4-c4cccc(C)n4)cc3c2)cn1` [Compound 314, 2-[4-[6-[1-benzyl-5-(6-methyl-2-pyridyl)triazol-4-yl]-3-quinolyl]pyrazol-1-yl]-N-methyl-ethanamine], the IC50 in test [1] is 1580 to 10000 nM. The Ki in test [2] was 3.98 to 31.6 nM.
Consider `Cc1cccc(-c2n[nH]cc2-c2ccc3nccc(CCC(=O)N4CCOCC4)c3n2)n1` [Compound 810, 3-[6-[3-(6-methyl-2-pyridyl)-1H-pyrazol-4-yl]-1,5-naphthyridin-4-yl]-1-morpholino-propan-1-one], for which, in test [1], the IC50 was 200 to 1260 nM. Also, the Ki in test [2] was 0.398 to 3.16 nM.
Take `Cc1cccc(-c2n[nH]cc2-c2ccc3ncc(-c4ccc(O)nc4)cc3n2)n1` [Compound 374, 5-[6-[3-(6-methyl-2-pyridyl)-1H-pyrazol-4-yl]-1,5-naphthyridin-3-yl]pyridin-2-ol]: in test [1], the IC50 was 25.1 to 158 nM. Further, in test [2], the Ki is less than 0.0316 nM.
In the same order, the values of `Cc1cccc(-c2nc[nH]c2-c2ccc3ncc(-c4cnn([C@@H]5CCCC[C@H]5N)c4)cc3c2)n1` [Compound 448, (1R,2R)-2-[4-[6-[4-(6-methyl-2-pyridyl)-1H-imidazol-5-yl]-3-quinolyl]pyrazol-1-yl]cyclohexanamine] are 25.1 to 158 nM and less than 0.0316 nM.
In the same order, the values of `CN[C@H]1CC[C@H](OC(=O)c2cnc3ccc(-c4cn[nH]c4-c4cccc(C)n4)cc3c2)CC1` [Compound 1221, [4-(methylamino)cyclohexyl] 6-[5-(6-methyl-2-pyridyl)-1H-pyrazol-4-yl]quinoline-3-carboxylate] are less than 20 nM and 0.0398 to 0.316 nM.
The like results for `Cc1cccc(-c2n[nH]cc2-c2ccc3ncc(N4CCCN(Cc5ccccc5)CC4)cc3n2)n1` [Compound 65, 7-(4-benzyl-1,4-diazepan-1-yl)-2-[3-(6-methyl-2-pyridyl)-1H-pyrazol-4-yl]-1,5-naphthyridine] were, in that order, 200 to 1260 nM and 0.0398 to 0.316 nM.
`CNCC1CN(c2cnc3ccc(-c4c[nH]nc4-c4cccc(C)n4)nc3c2)C1` [Compound 672, N-methyl-1-[1-[6-[3-(6-methyl-2-pyridyl)-1H-pyrazol-4-yl]-1,5-naphthyridin-3-yl]azetidin-3-yl]methanamine]: the IC50 in test [1] was 25.1 to 158 nM. For the same compound, in test [2], the Ki is 0.0398 to 0.316 nM.
In the same order, the values of `Cc1cccc(-c2[nH]cnc2-c2ccc3ncc(-c4nc(C(=O)OCC5CNC5)cs4)cc3c2)n1` [Compound 746, azetidin-3-ylmethyl 2-[6-[5-(6-methyl-2-pyridyl)-1H-imidazol-4-yl]-3-quinolyl]thiazole-4-carboxylate] are 25.1 to 158 nM and less than 0.0316 nM.
The like results for `Cc1nc(-c2nc3ccccn3c2-c2ccc3ncc(N4CCCNCC4)cc3n2)ccc1F` [Compound 84, 7-(1,4-diazepan-1-yl)-2-[2-(5-fluoro-6-methyl-2-pyridyl)imidazo[1,2-a]pyridin-3-yl]-1,5-naphthyridine] were, in that order, 25.1 to 158 nM and 0.0398 to 0.316 nM.
In the same order, the values of `Cc1cccc(-c2[nH]cnc2-c2ccc3ncc(-c4ccc(C(=O)OC[C@H]5CCCN5)cn4)cc3c2)n1` [Compound 1170, [(2R)-pyrrolidin-2-yl]methyl 6-[6-[5-(6-methyl-2-pyridyl)-1H-imidazol-4-yl]-3-quinolyl]pyridine-3-carboxylate] are 25.1 to 158 nM and 0.0398 to 0.316 nM.
For the compound `Cc1cccc(-c2[nH]ncc2-c2ccc3ncc(C(=O)OCCN4CCCC4)cc3n2)n1` [Compound 361, 2-pyrrolidin-1-ylethyl 6-[5-(6-methyl-2-pyridyl)-1H-pyrazol-4-yl]-1,5-naphthyridine-3-carboxylate], in test [1], the IC50 is 25.1 to 158 nM. Also, the Ki in test [2] is 0.398 to 3.16 nM.
For `CNCCn1ccc(-c2cnc3ccc(-c4nc[nH]c4-c4cccc(C)n4)cc3c2)n1` [Compound 494, N-methyl-2-[3-[6-[5-(6-methyl-2-pyridyl)-1H-imidazol-4-yl]-3-quinolyl]pyrazol-1-yl]ethanamine], the IC50 in test [1] was 25.1 to 158 nM. Moreover, in test [2], the Ki is 0.0398 to 0.316 nM.
The like results for `CNCc1ccnc2ccc(-c3nc[nH]c3-c3cccc(C)n3)cc12` [Compound 100, N-methyl-1-[6-[5-(6-methyl-2-pyridyl)-1H-imidazol-4-yl]-4-quinolyl]methanamine] were, in that order, 25.1 to 158 nM and 0.398 to 3.16 nM.
In the same order, the values of `Cc1cccc(-c2[nH]cnc2-c2ccc3ncc(-c4ccc(C(=O)O[C@@H]5CCNC5)nc4)cc3c2)n1` [Compound 1110, [(3R)-pyrrolidin-3-yl] 5-[6-[5-(6-methyl-2-pyridyl)-1H-imidazol-4-yl]-3-quinolyl]pyridine-2-carboxylate] are 200 to 1260 nM and 0.0398 to 0.316 nM.
The like results for `Cc1cccc(-c2n[nH]cc2-c2ccc3ncc(N4CCC[C@H]4CO)cc3n2)n1` [Compound 52, [(2S)-1-[6-[3-(6-methyl-2-pyridyl)-1H-pyrazol-4-yl]-1,5-naphthyridin-3-yl]pyrrolidin-2-yl]methanol] were, in that order, 25.1 to 158 nM and 0.0398 to 0.316 nM.
With `Cc1cccc(-c2[nH]cnc2-c2ccc3ncc(N4CC(N(C)C)C4)cc3c2)n1` [Compound 648, N,N-dimethyl-1-[6-[5-(6-methyl-2-pyridyl)-1H-imidazol-4-yl]-3-quinolyl]azetidin-3-amine], the IC50 in test [1] was 25.1 to 158 nM. In addition, the Ki in test [2] was 0.0398 to 0.316 nM.
For `CNCCn1cc(-c2cnc3ccc(-c4c[nH]nc4-c4cccc(C)n4)nc3c2)cn1` [Compound 487, N-methyl-2-[4-[6-[3-(6-methyl-2-pyridyl)-1H-pyrazol-4-yl]-1,5-naphthyridin-3-yl]pyrazol-1-yl]ethanamine], the IC50 in test [1] is less than 20 nM. Also, in test [2], the Ki is less than 0.0316 nM.
Turning to `CNCCn1cc(-c2cnc3ccc(-c4c(-c5cccc(C)n5)nn5cc(Cl)ccc45)cc3c2)cn1` [Compound 605, 2-[4-[6-[6-chloro-2-(6-methyl-2-pyridyl)pyrazolo[1,5-a]pyridin-3-yl]-3-quinolyl]pyrazol-1-yl]-N-methyl-ethanamine], the IC50 in test [1] is 200 to 1260 nM. Moreover, in test [2], the Ki is 0.0398 to 0.316 nM.
As to `Cc1cccc(-c2[nH]cnc2-c2ccc3ncc(-c4nccc(C(=O)OC5CNC5)n4)cc3c2)n1` [Compound 1075, azetidin-3-yl 2-[6-[5-(6-methyl-2-pyridyl)-1H-imidazol-4-yl]-3-quinolyl]pyrimidine-4-carboxylate], in test [1], the IC50 was 200 to 1260 nM. For the same compound, in test [2], the Ki is 0.398 to 3.16 nM.
In the case of `Cc1nc(-c2n[nH]cc2-c2ccc3ncc(N4CCN(C(C)C)CC4)cc3n2)ccc1F` [Compound 687, 2-[3-(5-fluoro-6-methyl-2-pyridyl)-1H-pyrazol-4-yl]-7-(4-isopropylpiperazin-1-yl)-1,5-naphthyridine], the IC50 in test [1] was 25.1 to 158 nM. Moreover, the Ki in test [2] was less than 0.0316 nM.
Consider `Cc1cccc(-c2[nH]cnc2-c2ccc3ncc(C4=C[C@H](C)N[C@H](C)C4)cc3c2)n1` [Compound 451, 3-[(2R,6S)-2,6-dimethyl-1,2,3,6-tetrahydropyridin-4-yl]-6-[5-(6-methyl-2-pyridyl)-1H-imidazol-4-yl]quinoline], for which, in test [1], the IC50 is 25.1 to 158 nM. Also, the Ki in test [2] is 0.0398 to 0.316 nM.
With `Cc1cccc(-c2[nH]cnc2-c2ccc3ncc(-c4nccc(C(=O)O)n4)cc3c2)n1` [Compound 1109, 2-[6-[5-(6-methyl-2-pyridyl)-1H-imidazol-4-yl]-3-quinolyl]pyrimidine-4-carboxylic acid], in test [1], the IC50 was 1580 to 10000 nM. Also, the Ki in test [2] was 0.398 to 3.16 nM.
The like results for `Cc1cccc(-c2[nH]cnc2-c2ccc3nccc(C(=O)O[C@H]4CC[C@@](C)(N)CC4)c3c2)n1` [Compound 1161, (4-amino-4-methyl-cyclohexyl) 6-[5-(6-methyl-2-pyridyl)-1H-imidazol-4-yl]quinoline-4-carboxylate] were, in that order, 200 to 1260 nM and 3.98 to 31.6 nM.
In the case of `Cc1cccc(-c2n[nH]cc2-c2ccc3ncc(N4CC5CNC5C4)cc3n2)n1` (stereo not shown) [Compound 219, 7-(3,6-diazabicyclo[3.2.0]heptan-3-yl)-2-[3-(6-methyl-2-pyridyl)-1H-pyrazol-4-yl]-1,5-naphthyridine], the IC50 in test [1] is 25.1 to 158 nM. Moreover, the Ki in test [2] is 0.0398 to 0.316 nM.
In the same order, the values of `Cc1cccc(-c2[nH]cnc2-c2ccc3ncc(NC4CNC4)cc3c2)n1` [Compound 50, N-(azetidin-3-yl)-6-[5-(6-methyl-2-pyridyl)-1H-imidazol-4-yl]quinolin-3-amine] are 25.1 to 158 nM and 0.0398 to 0.316 nM.
Consider `Cc1cccc(-c2n[nH]cc2-c2ccc3ncc(-c4cc5n(n4)CCNC5)cc3n2)n1` [Compound 83, 2-[3-(6-methyl-2-pyridyl)-1H-pyrazol-4-yl]-7-(4,5,6,7-tetrahydropyrazolo[1,5-a]pyrazin-2-yl)-1,5-naphthyridine], for which, in test [1], the IC50 was less than 20 nM. Also, in test [2], the Ki is less than 0.0316 nM.
